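How tested: cells in 96-well plates exposed to compound for 48 hours at five concentrations. TGI denotes the concentration required for complete inhibition of growth.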
Experiments:
Experiment in all cases: DTP human tumour cell line panel, 48 h
OVCAR-5 ovarian = tested on: OVCAR-5 ovarian
SK-MEL-28 melanoma = tested on: SK-MEL-28 melanoma
HOP-92 NSCLC = tested on: HOP-92 NSCLC
UO-31 renal = tested on: UO-31 renal
IGROV1 ovarian = tested on: IGROV1 ovarian
ACHN renal = tested on: ACHN renal
K-562 leukemia = tested on: K-562 leukemia
HL-60(TB) leukemia = tested on: HL-60(TB) leukemia
A498 renal = tested on: A498 renal
SF-268 CNS = tested on: SF-268 CNS
UACC-62 melanoma = tested on: UACC-62 melanoma
SR leukemia = tested on: SR leukemia
SF-295 CNS = tested on: SF-295 CNS
OVCAR-3 ovarian = tested on: OVCAR-3 ovarian
786-0 renal = tested on: 786-0 renal
SW-620 colon = tested on: SW-620 colon
M14 melanoma = tested on: M14 melanoma
MALME-3M melanoma = tested on: MALME-3M melanoma
A549 NSCLC = tested on: A549 NSCLC
CCRF-CEM leukemia = tested on: CCRF-CEM leukemia
SK-MEL-2 melanoma = tested on: SK-MEL-2 melanoma
UACC-257 melanoma = tested on: UACC-257 melanoma
SK-MEL-5 melanoma = tested on: SK-MEL-5 melanoma
NCI-H226 lung = tested on: NCI-H226 lung
HCT-15 colon = tested on: HCT-15 colon
CAKI-1 renal = tested on: CAKI-1 renal
DLD-1 colon = tested on: DLD-1 colon
U251 CNS = tested on: U251 CNS
NCI-H23 lung = tested on: NCI-H23 lung
SNB-19 CNS = tested on: SNB-19 CNS
HT29 colon = tested on: HT29 colon
SK-OV-3 ovarian = tested on: SK-OV-3 ovarian
RXF 393 renal = tested on: RXF 393 renal
SNB-78 CNS = tested on: SNB-78 CNS
SN12C renal = tested on: SN12C renal
COLO 205 colon = tested on: COLO 205 colon
NCI-H460 lung = tested on: NCI-H460 lung
SF-539 CNS = tested on: SF-539 CNS
MOLT-4 leukemia = tested on: MOLT-4 leukemia
LXFL 529 NSCLC = tested on: LXFL 529 NSCLC
LOX IMVI melanoma = tested on: LOX IMVI melanoma
DMS 114 small cell lung = tested on: DMS 114 small cell lung
KM20L2 colon = tested on: KM20L2 colon
OVCAR-4 ovarian = tested on: OVCAR-4 ovarian
M19-MEL melanoma = tested on: M19-MEL melanoma
HCT-116 colon = tested on: HCT-116 colon
NCI-H522 lung = tested on: NCI-H522 lung
KM12 colon = tested on: KM12 colon
EKVX NSCLC = tested on: EKVX NSCLC
DMS 273 small cell lung = tested on: DMS 273 small cell lung
OVCAR-8 ovarian = tested on: OVCAR-8 ovarian
SNB-75 CNS = tested on: SNB-75 CNS
HOP-62 NSCLC = tested on: HOP-62 NSCLC
TK-10 renal = tested on: TK-10 renal
HOP-18 NSCLC = tested on: HOP-18 NSCLC
RPMI-8226 leukemia = tested on: RPMI-8226 leukemia
HCC-2998 colon = tested on: HCC-2998 colon

With `CCN(CC)CCNC(=O)c1ccc([N+](=O)[O-])cc1OC` the TGI (OVCAR-5 ovarian) was greater than 100 µM, the TGI (SK-MEL-28 melanoma) was greater than 100 µM and the TGI (HOP-92 NSCLC) was greater than 100 µM. The TGI (UO-31 renal) was greater than 100 µM, the TGI (IGROV1 ovarian) was greater than 100 µM and the TGI (ACHN renal) was greater than 100 µM. For the same compound, the TGI (K-562 leukemia) was greater than 100 µM, the TGI (HL-60(TB) leukemia) was greater than 100 µM and the TGI (A498 renal) was greater than 100 µM. The TGI (SF-268 CNS) was greater than 100 µM, the TGI (UACC-62 melanoma) was greater than 100 µM and the TGI (SR leukemia) was greater than 100 µM. It also gave a TGI (SF-295 CNS) greater than 100 µM, a TGI (OVCAR-3 ovarian) greater than 100 µM and a TGI (786-0 renal) greater than 100 µM. The TGI (SW-620 colon) was greater than 100 µM, the TGI (M14 melanoma) was greater than 100 µM and the TGI (MALME-3M melanoma) was greater than 100 µM. The TGI (A549 NSCLC) was greater than 100 µM, the TGI (CCRF-CEM leukemia) was greater than 100 µM and the TGI (SK-MEL-2 melanoma) was greater than 100 µM. The TGI (UACC-257 melanoma) was greater than 100 µM, the TGI (SK-MEL-5 melanoma) was greater than 100 µM and the TGI (NCI-H226 lung) was greater than 100 µM. It also gave a TGI (HCT-15 colon) greater than 100 µM, a TGI (CAKI-1 renal) greater than 100 µM and a TGI (DLD-1 colon) greater than 100 µM. The TGI (U251 CNS) was greater than 100 µM, the TGI (NCI-H23 lung) was greater than 100 µM and the TGI (SNB-19 CNS) was greater than 100 µM. For the same compound, the TGI (HT29 colon) was greater than 100 µM, the TGI (SK-OV-3 ovarian) was greater than 100 µM and the TGI (RXF 393 renal) was greater than 100 µM. For the same compound, the TGI (SNB-78 CNS) was greater than 100 µM, the TGI (SN12C renal) was greater than 100 µM and the TGI (COLO 205 colon) was greater than 100 µM. It also gave a TGI (NCI-H460 lung) greater than 100 µM, a TGI (SF-539 CNS) greater than 100 µM and a TGI (MOLT-4 leukemia) greater than 100 µM. It also gave a TGI (LXFL 529 NSCLC) greater than 100 µM, a TGI (LOX IMVI melanoma) greater than 100 µM and a TGI (DMS 114 small cell lung) greater than 100 µM. For the same compound, the TGI (KM20L2 colon) was greater than 100 µM, the TGI (OVCAR-4 ovarian) was greater than 100 µM and the TGI (M19-MEL melanoma) was greater than 100 µM. It also gave a TGI (HCT-116 colon) greater than 100 µM, a TGI (NCI-H522 lung) greater than 100 µM and a TGI (KM12 colon) greater than 100 µM. For the same compound, the TGI (EKVX NSCLC) was greater than 100 µM, the TGI (DMS 273 small cell lung) was greater than 100 µM and the TGI (OVCAR-8 ovarian) was greater than 100 µM. For the same compound, the TGI (SNB-75 CNS) was greater than 100 µM, the TGI (HOP-62 NSCLC) was greater than 100 µM and the TGI (TK-10 renal) was greater than 100 µM.
`CC(=O)Oc1cc(OC(C)=O)c2c(=O)c3ccccc3n(C)c2c1` showed a TGI (SK-MEL-28 melanoma) of 59.9 µM, a TGI (UO-31 renal) of 53.8 µM and a TGI (IGROV1 ovarian) of 68.4 µM. It also gave a TGI (ACHN renal) of 65.1 µM, a TGI (SF-268 CNS) of 76.5 µM and a TGI (UACC-62 melanoma) greater than 100 µM. For the same compound, the TGI (SF-295 CNS) was 44.2 µM, the TGI (OVCAR-3 ovarian) was greater than 100 µM and the TGI (MALME-3M melanoma) was 48.8 µM. The TGI (A549 NSCLC) was greater than 100 µM, the TGI (SK-MEL-2 melanoma) was 97.1 µM and the TGI (UACC-257 melanoma) was 84.1 µM. It also gave a TGI (SK-MEL-5 melanoma) of 29.7 µM, a TGI (NCI-H226 lung) of 40.5 µM and a TGI (HCT-15 colon) greater than 100 µM. It also gave a TGI (DLD-1 colon) of 91.3 µM, a TGI (NCI-H23 lung) of 77.6 µM and a TGI (SNB-19 CNS) greater than 100 µM. For the same compound, the TGI (HT29 colon) was 64.5 µM, the TGI (SK-OV-3 ovarian) was 59.8 µM and the TGI (RXF 393 renal) was 75.2 µM. It also gave a TGI (SNB-78 CNS) of 84.3 µM, a TGI (SN12C renal) of 88.2 µM and a TGI (NCI-H460 lung) of 67.5 µM. For the same compound, the TGI (SF-539 CNS) was 42.2 µM, the TGI (MOLT-4 leukemia) was greater than 100 µM and the TGI (LXFL 529 NSCLC) was greater than 100 µM. The TGI (LOX IMVI melanoma) was 28.1 µM, the TGI (DMS 114 small cell lung) was 96.5 µM and the TGI (OVCAR-4 ovarian) was greater than 100 µM. For the same compound, the TGI (M19-MEL melanoma) was 52.2 µM, the TGI (HCT-116 colon) was 74.7 µM and the TGI (NCI-H522 lung) was 52.8 µM. For the same compound, the TGI (HOP-18 NSCLC) was 57.1 µM, the TGI (KM12 colon) was greater than 100 µM and the TGI (DMS 273 small cell lung) was greater than 100 µM. For the same compound, the TGI (OVCAR-8 ovarian) was 64.4 µM, the TGI (SNB-75 CNS) was 76.3 µM and the TGI (TK-10 renal) was greater than 100 µM.
In the case of `C=C(c1ccccc1N)[C@@]1(O)C[C@H](/C(=C\C)CO)C[C@@H]1NCc1ccccc1`, the TGI (SK-MEL-28 melanoma) is reported as 33 µM, the TGI (HOP-92 NSCLC) is reported as 27.5 µM and the TGI (UO-31 renal) is reported as 42.3 µM. It also gave a TGI (IGROV1 ovarian) greater than 100 µM, a TGI (ACHN renal) greater than 100 µM and a TGI (K-562 leukemia) of 39.5 µM. The TGI (HL-60(TB) leukemia) was 29.9 µM, the TGI (A498 renal) was greater than 100 µM and the TGI (SF-268 CNS) was greater than 100 µM. It also gave a TGI (UACC-62 melanoma) greater than 100 µM, a TGI (SF-295 CNS) of 30.5 µM and a TGI (OVCAR-3 ovarian) of 45.8 µM. The TGI (786-0 renal) was 46 µM, the TGI (RPMI-8226 leukemia) was 42.5 µM and the TGI (SW-620 colon) was 50 µM. It also gave a TGI (M14 melanoma) of 28.5 µM, a TGI (MALME-3M melanoma) of 28.4 µM and a TGI (A549 NSCLC) greater than 100 µM. The TGI (CCRF-CEM leukemia) was 57.2 µM, the TGI (SK-MEL-2 melanoma) was 39.2 µM and the TGI (UACC-257 melanoma) was 32.3 µM. For the same compound, the TGI (SK-MEL-5 melanoma) was 32.8 µM, the TGI (NCI-H226 lung) was 33.4 µM and the TGI (HCT-15 colon) was greater than 100 µM. The TGI (U251 CNS) was 33.3 µM, the TGI (NCI-H23 lung) was greater than 100 µM and the TGI (SNB-19 CNS) was 79.5 µM. It also gave a TGI (HT29 colon) of 32.7 µM, a TGI (SK-OV-3 ovarian) of 73.7 µM and a TGI (RXF 393 renal) of 49.3 µM. It also gave a TGI (SNB-78 CNS) of 79.7 µM, a TGI (SN12C renal) greater than 100 µM and a TGI (COLO 205 colon) of 33 µM. It also gave a TGI (NCI-H460 lung) of 42.8 µM, a TGI (SF-539 CNS) of 29.9 µM and a TGI (MOLT-4 leukemia) of 39.7 µM. For the same compound, the TGI (LOX IMVI melanoma) was 31.6 µM, the TGI (DMS 114 small cell lung) was 33.9 µM and the TGI (KM20L2 colon) was 42.6 µM. The TGI (OVCAR-4 ovarian) was greater than 100 µM, the TGI (M19-MEL melanoma) was 62.1 µM and the TGI (HCT-116 colon) was 28.7 µM. It also gave a TGI (NCI-H522 lung) of 33.4 µM, a TGI (HOP-18 NSCLC) of 52.4 µM and a TGI (KM12 colon) of 33.7 µM. It also gave a TGI (HCC-2998 colon) of 30.9 µM, a TGI (EKVX NSCLC) greater than 100 µM and a TGI (DMS 273 small cell lung) of 84.5 µM. For the same compound, the TGI (OVCAR-8 ovarian) was 53.2 µM, the TGI (SNB-75 CNS) was 24.6 µM and the TGI (HOP-62 NSCLC) was greater than 100 µM. For the same compound, the TGI (TK-10 renal) was 44.1 µM.
